Patent US7851493B2, “Phenyl-1,2,4-oxadiazolone derivatives with phenyl group, processes for their preparation and their use as pharmaceuticals” (Sanofi-Aventis, priority 2005, dated 2010)
pEC50: −log10 of the molar value. Like-named read-outs stand apart in the source and are kept apart here.

How the values were obtained:
[1] = rhesus and cynomolgus monkeys; cited from earlier work
[2] = two weeks clinical trials in healthy volunteers; cited from earlier work
[3] = diabetic animal model; cited from earlier work
human PPARdelta = molecular target: T1, human PPARdelta (Homo sapiens, UniProt Q03181); experiment: Cellular PPARdelta assay (human GAL4 luciferase reporter, stably transfected HEK cell line); assay type: cell-based
T1 construct: amino acids S139-Y441; expressed in transfected cells; plasmid pcDNA3
T1 sequence (Q03181 139-441): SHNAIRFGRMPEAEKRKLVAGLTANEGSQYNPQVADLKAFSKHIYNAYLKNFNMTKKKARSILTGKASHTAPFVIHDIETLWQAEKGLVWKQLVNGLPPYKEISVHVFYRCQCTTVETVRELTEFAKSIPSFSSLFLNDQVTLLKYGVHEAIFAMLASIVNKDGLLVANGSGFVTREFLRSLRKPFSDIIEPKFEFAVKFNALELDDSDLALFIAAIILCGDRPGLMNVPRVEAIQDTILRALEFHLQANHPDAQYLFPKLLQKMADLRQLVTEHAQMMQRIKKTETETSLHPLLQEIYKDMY
Protocol: Determination of EC50 Values of PPAR Agonists in the Cellular PPARdelta Assay
(§1) The potency of substances which bind to human PPARdelta and activate it in an agonistic manner is analyzed using a stably transfected HEK cell line (HEK=human embryo kidney) which is referred to here as PPARdelta reporter cell line. In analogy to the assay described for PPARalpha, the PPARdelta reporter cell line also contains two genetic elements, a luciferase reporter element (pdeltaM-GAL4-Luc-Zeo) and a PPARdelta fusion protein (GR-GAL4-humanPPARdelta-LBD) which mediates expression of the luciferase reporter element depending on a PPARdelta ligand. The stably and constitutively expressed fusion protein GR-GAL4-humanPPARdelta-LBD binds in the cell nucleus of the PPARdelta reporter cell line via the GAL4 protein portion to the GAL4 DNA binding motifs 5′-upstream of the luciferase reporter element which is stably integrated in the genome of the cell line. There is only little expression of the luciferase reporter gene in the absence of a PPARdelta ligand if fatty acid-depleted fetal calf serum (cs-FCS) is used in the assay. PPARdelta ligands bind and activate the PPARdelta fusion protein and thereby stimulate expression of the luciferase reporter gene. The luciferase which is formed can be detected by means of chemiluminescence via an appropriate substrate.
Construction of the PPARdelta Reporter Cell Line
The production of the stable PPARdelta reporter cell line is based on a stable HEK-cell clone which was stably transfected with a luciferase reporter element. This step was already described above in the section “construction of the PPARalpha reporter cell line”. In a second step, the PPARdelta fusion protein (GR-GAL4-humanPPARdelta-LBD was stably introduced into this cell clone. For this purpose, the cDNA coding for the N-terminal 76 amino acids of the glucocorticoid receptor (Accession #P04150) was linked to the cDNA section coding for amino acids 1-147 of the yeast transcription factor GAL4 (Accession #P04386). The cDNA of the ligand-binding domain of the human PPARdelta receptor (amino acids S139-Y441; Accession #L07592) was cloned in at the 3′-end of this GR-GAL4 construct. The fusion construct prepared in this way (GR-GAL4-humanPPARdelta-LBD) was recloned into the plasmid pcDNA3 (Invitrogen) in order to enable constitutive expression by the cytomegalovirus promoter. This plasmid was linearized with a restriction endonuclease and stably transfected into the previously described cell clone containing the luciferase reporter element. The resulting PPARdelta reporter cell line which contains a luciferase reporter element and constitutively expresses the PPARdelta fusion protein (GR-GAL4-human PPARdelta-LBD) was isolated by selection with zeocin (0.5 mg/ml) and G418 (0.5 mg/ml).
Assay Procedure and Evaluation
The activity of PPARdelta agonists is determined in a 3-day assay in exact analogy to the procedure already described for the PPARalpha reporter cell line except that the PPARdelta reporter cell line and a specific PPARdelta agonist was used as a standard to control test efficacy.

human PPARalpha = molecular target: T2, human PPARalpha (Homo sapiens, UniProt Q07869); experiment: Cellular PPARalpha assay (human GAL4 luciferase reporter, stably transfected HEK cell line); assay type: cell-based
T2 construct: amino acids S167-Y468; expressed in transfected cells; plasmid pcDNA3
T2 sequence (Q07869 167-468): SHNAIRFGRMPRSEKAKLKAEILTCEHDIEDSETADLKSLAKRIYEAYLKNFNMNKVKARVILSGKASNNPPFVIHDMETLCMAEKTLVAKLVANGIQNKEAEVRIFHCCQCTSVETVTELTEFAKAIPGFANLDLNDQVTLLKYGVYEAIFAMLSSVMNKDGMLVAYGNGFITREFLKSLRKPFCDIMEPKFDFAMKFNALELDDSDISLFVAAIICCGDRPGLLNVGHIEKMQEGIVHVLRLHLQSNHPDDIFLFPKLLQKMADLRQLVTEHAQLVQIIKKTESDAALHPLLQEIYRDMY
Protocol: Determination of EC50 Values of PPAR Agonists in the Cellular PPARalpha Assay
as §1, with “PPARalpha” for “PPARdelta”, “It” for “In analogy to the assay described for PPARalpha, the PPARdelta reporter cell line also”, “(GR-GAL4-humanPPARalpha-LBD)” for “(GR-GAL4-humanPPARdelta-LBD)”, “GR-GAL4-humanPPARalpha-LBD” for “GR-GAL4-humanPPARdelta-LBD”, “weak” for “little”, “stimulate the” for “stimulate”
Construction of the PPARalpha Reporter Cell Line
The PPARalpha reporter cell line was prepared in two stages. Firstly, the luciferase reporter element was constructed and stably transfected into HEK cells. For this purpose, five binding sites of the yeast transcription factor GAL4 (Accession #AF264724) were cloned in 5′-upstream of a 68 bp-long minimal MMTV promoter (Accession #V01175). The minimal MMTV promoter section contains a […] and a TATA element in order to enable efficient transcription by RNA polymerase II. The cloning and sequencing of the GAL4-MMTV construct took place in analogy to the description of Sambrook J. et al. (Molecular cloning, Cold Spring Harbor Laboratory Press, 1989). Then the complete Photinus pyralis gene (Accession #15077) was cloned in 3′-downstream of the GAL4-MMTV element. After sequencing, the luciferase reporter element consisting of five GAL4 binding sites, MMTV promoter and luciferase gene was recloned into a plasmid which confers zeocin resistance in order to obtain the plasmid pdeltaM-GAL4-Luc-Zeo. This vector was transfected into HEK cells in accordance with the statements in Ausubel, F. M. et al. (Current protocols in molecular biology, Vol. 1-3, John Wiley & Sons, Inc., 1995).
In a second step, the PPARalpha fusion protein (GR-GAL4-humanPPARalpha-LBD was introduced into the stable cell clone described. For this purpose, initially the cDNA coding for the N-terminal 76 amino acids of the glucocorticoid receptor (Accession #P04150) was linked to the cDNA section coding for amino acids 1-147 of the yeast transcription factor GAL4 (Accession #P04386). The cDNA of the ligand-binding domain of the human PPARalpha receptor (amino acids S167-Y468; Accession #S74349) was cloned in at the 3′-end of this GR-GAL4 construct. The fusion construct prepared in this way (GR-GAL4-humanPPARalpha-LBD) was recloned into the plasmid pcDNA3 (Invitrogen) in order to enable constitutive expression therein by the cytomegalovirus promoter. This plasmid was linearized with a restriction endonuclease and stably transfected into the previously described cell clone containing the luciferase reporter element. The finished PPARalpha reporter cell line which contains a luciferase reporter element and constitutively expresses the PPARalpha fusion protein (GR-GAL4-human PPARalpha-LBD) was isolated by selection with zeocin (0.5 mg/ml) and G418 (0.5 mg/ml).
The activity of PPARalpha agonists is determined in a 3-day assay, which is described below: […]

Compound | pEC50 (human PPARdelta) | pEC50 (human PPARalpha) | plasma lipids [1] | plasma lipids [2] | plasma cholesterol [3]
CCCc1c(OCCCSc2nnc(SCC(=O)O)s2)ccc(C(C)=O)c1O [YM-16638] |  |  | significantly lowers | acts in a similar manner | 
CCCc1c(OCCCOc2ccc(OCC(=O)O)cc2)ccc(C(C)=O)c1O [Example L-165041] |  |  |  |  | raises

Second part, led by results:

pEC50 (human PPARdelta) | pEC50 (human PPARalpha) | Compound | plasma lipids [1] | plasma lipids [2] | plasma cholesterol [3]
7.66 | 5.75 | COc1cc(OCc2sc(-c3ccc(C(F)(F)F)cc3)nc2CCCS(C)(=O)=O)ccc1-c1noc(=O)[nH]1 [Example 102, 3-{4-[4-(3-Methanesulfonyl-propyl)-2-(4-trifluoromethyl-phenyl)-thiazol-5-ylmethoxy]-2-methoxy-phenyl}-4H-1,2,4-oxadiazol-5-one] |  |  | 
8.10 | 6.32 | COc1cc(OCc2sc(-c3ccc(C(F)(F)F)cc3)nc2CCCN2CCSCC2)ccc1-c1noc(=O)[nH]1 [Example 103, 3-{2-Methoxy-4-[4-(3-thiomorpholin-4-yl-propyl)-2-(4-trifluoromethyl-phenyl)-thiazol-5-ylmethoxy]-phenyl}-4H-1,2,4-oxadiazol-5-one] |  |  | 
8.10 | 6.50 | CCCCc1nc(-c2ccc(C(F)(F)F)cc2)sc1COc1ccc(-c2noc(=O)[nH]2)c(C)n1 [Example 100, 3-{6-[4-Butyl-2-(4-trifluoromethyl-phenyl)-thiazol-5-ylmethoxy]-2-methyl-pyridin-3-yl}-4H-[1,2,4]oxadiazol-5-one] |  |  | 
